Experimental data taken from patent US5508428A, “Spiro compound” (Daiichi Phamaceutical Co., Ltd., priority 1988, dated 1996).
≈ marks a conversion by molar mass, not a printed value.

Experiments:
Format in all cases: cell-based
E. coli, NIHJ = experiment: Antibacterial activity (MIC), E. coli NIHJ; details: for MIC: Escherichia coli
Method: (§1) The antibacterial activity assays were performed by the method specified by Japan Society of Chemotherapy (Chemotherapy 29(1), 76 (1981). The table of antibacterial activity is followed by the reaction schemes for the synthesis of various spiro ring-containing cyclic amine derivatives, intermediate compounds for synthesis of quinolone rings and synthesis of various spiro compounds.

S. flexneri, 2A 5503 = experiment: Antibacterial activity (MIC), S. flexneri 2A 5503; details: for MIC: Shigella flexneri, 2A5503
Method: as §1

Pr. vulgaris, 08601 = experiment: Antibacterial activity (MIC), Pr. vulgaris 08601; details: for MIC: Proteus vulgaris
Method: as §1

Pr. mirabillis, IF0-3849 = experiment: Antibacterial activity (MIC), Pr. mirabillis IF0-3849
Method: as §1

Ser. marcescens, 10100 = experiment: Antibacterial activity (MIC), Ser. marcescens 10100; details: for MIC: Serratia marcescens, 10100, Ser. marcescens
Method: as §1

Ps. aeruginosa, 32104 = experiment: Antibacterial activity (MIC), Ps. aeruginosa 32104; details: for MIC: Pseudomonas aeruginosa, 32104, Ps. aeruginosa; for Antibacterial Activity (MIC): Ps. aeruginosa
Method: as §1

Ps. aeruginosa, 32121 = experiment: Antibacterial activity (MIC), Ps. aeruginosa 32121; details: for MIC: Pseudomonas aeruginosa, 32121, Ps. aeruginosa
Method: as §1

[1] = system: Ps. maltophilia, IID-1275; experiment: Antibacterial activity (MIC), Ps. maltophilia IID-1275; details: for MIC: Stenotrophomonas maltophilia, IID1275, Ps. maltophilia
Method: as §1

S. aureus, 209P = experiment: Antibacterial activity (MIC), S. aureus 209P; details: for MIC: Staphylococcus aureus
Method: as §1

S. epidermidis, 56500 = experiment: Antibacterial activity (MIC), S. epidermidis 56500; details: for MIC: Staphylococcus epidermidis, 56500, S. epidermidis; for Antibacterial Activity (MIC): S. epidermidis
Method: as §1

Str. pyogenes, G-36 = experiment: Antibacterial activity (MIC), Str. pyogenes G-36; details: for MIC: Streptococcus pyogenes, G36, Str. pyogenes; for Antibacterial Activity (MIC): Str. pyogenes
Method: as §1

[2] = system: Str. faecalis, ATCC-19433; experiment: Antibacterial activity (MIC), Str. faecalis ATCC-19433; details: for MIC: Enterococcus faecalis, ATCC19433, Str. faecalis; for Antibacterial Activity (MIC): Str. faecalis
Method: as §1

Compound | MIC (E. coli, NIHJ) [µg/mL] | MIC (S. flexneri, 2A 5503) [µg/mL] | MIC (Pr. vulgaris, 08601) [µg/mL] | MIC (Pr. mirabillis, IF0-3849) [µg/mL] | MIC (Ser. marcescens, 10100) [µg/mL] | MIC (Ps. aeruginosa, 32104) [µg/mL] | MIC (Ps. aeruginosa, 32121) [µg/mL] | MIC [1] [µg/mL] | MIC (S. aureus, 209P) [µg/mL] | MIC (S. epidermidis, 56500) [µg/mL] | MIC (Str. pyogenes, G-36) [µg/mL] | MIC [2] [µg/mL] | further results
N[C@@H]1CN(c2cc3c(cc2F)c(=O)c(C(=O)O)cn3C2CC2)CC12CC2 [Compound 33b, (-)-7-[7-(S)-amino-5-azaspiro[2.3]heptan-5-yl)-1-cyclopropyl-6-fluoro-1,4-dihydro-4-oxoquinoline-3-carboxylic acid] | ≤ 0.05 | ≤ 0.05 | ≤ 0.05 | ≤ 0.05 | ≤ 0.05 | ≤ 0.05 | ≤ 0.05 | 0.1 (≈ 0.28 µM) | ≤ 0.05 | 0.1 (≈ 0.28 µM) | 0.2 (≈ 0.56 µM) | 0.2 (≈ 0.56 µM) | –
NC1CN(c2cc3c(cc2F)c(=O)c(C(=O)O)cn3-c2ccc(F)cc2F)CC12CC2 (stereo not drawn) [Compound 34, 7-(7-amino-5-azaspiro[2.4]heptan-5-yl)-6-fluoro-1-(2.4-difluorophenyl)-1,4-dihydro-4-oxoquinoline-3-carboxylic acid] | ≤ 0.05 | ≤ 0.05 | 0.2 (≈ 0.466 µM) | 0.39 (≈ 0.908 µM) | 0.39 (≈ 0.908 µM) | 0.39 (≈ 0.908 µM) | 0.2 (≈ 0.466 µM) | 0.1 (≈ 0.233 µM) | 0.1 (≈ 0.233 µM) | 0.2 (≈ 0.466 µM) | 0.39 (≈ 0.908 µM) | 0.78 (≈ 1.82 µM) | –
NC1CN(c2c(F)cc3c(=O)c(C(=O)O)cn(C4CC4)c3c2Cl)CC12CC2 (single isomer, unassigned) [Compound 32b, 7-(7-amino-5-azaspiro[2.4]heptan-5-yl)-8-chloro-1-cyclopropyl-6-fluoro-1,4-dihydro-4-oxoquinoline-3-carboxylic acid] | – | – | – | – | – | – | – | – | – | – | – | – | Antibacterial Activity (MIC) (E. coli, NIHJ): ≤ 0.05 µg/mL; Antibacterial Activity (MIC) (S. flexneri, 2A 5503): ≤ 0.05 µg/mL; Antibacterial Activity (MIC) (Pr. vulgaris, 08601): ≤ 0.05 µg/mL; Antibacterial Activity (MIC) (Pr. mirabillis, IF0-3849): ≤ 0.05 µg/mL; Antibacterial Activity (MIC) (Ser. marcescens, 10100; Ser. marcescens): ≤ 0.05 µg/mL; Antibacterial Activity (MIC) (Ps. aeruginosa, 32104): 0.10 µg/mL; Antibacterial Activity (MIC) (Ps. aeruginosa, 32121; Ps. aeruginosa): ≤ 0.05 µg/mL; Antibacterial Activity (MIC) ([1]; Ps. maltophilia): ≤ 0.05 µg/mL; Antibacterial Activity (MIC) (S. aureus, 209P): ≤ 0.05 µg/mL; Antibacterial Activity (MIC) (S. epidermidis, 56500): ≤ 0.05 µg/mL; Antibacterial Activity (MIC) (Str. pyogenes, G-36): 0.39 µg/mL; Antibacterial Activity (MIC) [2]: 0.10 µg/mL
NC1CN(c2cc3c(cc2F)c(=O)c(C(=O)O)cn3C2CC2)CC12CC2 (racemic) [Compound 33, 7-(7-Amino-5-azaspiro[2.4]heptan-5-yl)-1-cyclopropyl-6-fluoro-1,4-dihydro-4-oxoquinoline-3-carboxylic Acid] | ≤ 0.05 | ≤ 0.05 | ≤ 0.05 | ≤ 0.05 | 0.1 (≈ 0.28 µM) | 0.1 (≈ 0.28 µM) | ≤ 0.05 | 0.1 (≈ 0.28 µM) | ≤ 0.05 | 0.2 (≈ 0.56 µM) | 0.39 (≈ 1.09 µM) | 0.39 (≈ 1.09 µM) | –
C[C@H]1COc2c(N3CC(N)C4(CCC4)C3)c(F)cc3c(=O)c(C(=O)O)cn1c23 (stereo partly drawn) [Compound 98, 10-(8-Amino-6-azaspiro[3.4]octan-6-yl)-9-fluoro-2,3-dihydro-3-(S)-methyl-7-oxo-7H-pyrido[1,2,3-de][1,4]-benzoxazine-6-carboxylic acid] | ≤ 0.05 | ≤ 0.05 | ≤ 0.05 | 0.2 (≈ 0.516 µM) | 0.1 (≈ 0.258 µM) | 0.39 (≈ 1.01 µM) | 0.2 (≈ 0.516 µM) | 0.2 (≈ 0.516 µM) | ≤ 0.05 | ≤ 0.05 | 0.39 (≈ 1.01 µM) | 0.2 (≈ 0.516 µM) | –
C[C@H]1COc2c(N3CC(N)C4(CC4)C3)c(F)cc3c(=O)c(C(=O)O)cn1c23 (single isomer, unassigned; (-)) [Compound 36b] | ≤ 0.05 | ≤ 0.05 | ≤ 0.05 | 0.1 (≈ 0.268 µM) | 0.2 (≈ 0.536 µM) | 0.2 (≈ 0.536 µM) | 0.1 (≈ 0.268 µM) | 0.39 (≈ 1.04 µM) | ≤ 0.05 | 0.1 (≈ 0.268 µM) | 0.39 (≈ 1.04 µM) | 0.39 (≈ 1.04 µM) | –
NC1CN(c2c(F)cc3c(=O)c(C(=O)O)cn(C4CC4)c3c2F)CC12CC2 (single isomer, unassigned; (+)) [Compound 31a, (+)-7-(7-Amino-5-azaspiro[2.4]heptan-5-yl)-1-cyclopropyl-6,8-difluoro-1,4-dihydro-4-oxoquinoline-3-carboxylic Acid] | ≤ 0.05 | ≤ 0.05 | ≤ 0.05 | 0.1 (≈ 0.266 µM) | ≤ 0.05 | – | 0.1 (≈ 0.266 µM) | 0.1 (≈ 0.266 µM) | 0.1 (≈ 0.266 µM) | – | – | – | Antibacterial Activity (MIC) (Ps. aeruginosa, 32104): 0.20 µg/mL; Antibacterial Activity (MIC) (S. epidermidis, 56500): 0.39 µg/mL; Antibacterial Activity (MIC) (Str. pyogenes, G-36): 1.57 µg/mL; Antibacterial Activity (MIC) [2]: 0.79 µg/mL
